Assay results as given in the kinase profiling compilation of Christmann-Franck et al. (2016).

How the values were obtained:
Assay in all cases: KINOMEscan competition binding
Settings in all cases: compound 10.0 µM
ACVR2A (human) = ACVR2A (human) (UniProt P27037)
SBK1 (human) = SBK1 (human) (UniProt Q52WX2)
NEK6 (human) = NEK6 (human) (UniProt Q9HC98)
YES1 (human) = YES1 (human) (UniProt P07947)
RET (human) = RET (human) (UniProt P07949)
LYN (human) = LYN (human) (UniProt P07948)
PIM2 (human) = PIM2 (human) (UniProt Q9P1W9)
TTK (human) = TTK (human) (UniProt P33981)
CRK2 (P.falciparum) = CRK2 (P.falciparum) (UniProt P61075)
Sequence of CRK2 (P.falciparum) (P61075 whole entry, looked up): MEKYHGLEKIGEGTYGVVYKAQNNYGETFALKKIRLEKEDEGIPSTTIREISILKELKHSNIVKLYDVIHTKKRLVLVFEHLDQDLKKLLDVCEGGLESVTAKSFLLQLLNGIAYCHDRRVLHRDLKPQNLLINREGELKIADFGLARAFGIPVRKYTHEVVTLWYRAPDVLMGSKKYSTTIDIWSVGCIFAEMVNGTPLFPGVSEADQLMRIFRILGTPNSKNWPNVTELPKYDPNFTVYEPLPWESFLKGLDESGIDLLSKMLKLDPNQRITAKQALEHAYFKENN

RPS6KA6 KD1 (human) = RPS6KA6 KD1 (human) (UniProt Q9UK32)
Sequence of RPS6KA6 KD1 (human) (Q9UK32 whole entry, looked up): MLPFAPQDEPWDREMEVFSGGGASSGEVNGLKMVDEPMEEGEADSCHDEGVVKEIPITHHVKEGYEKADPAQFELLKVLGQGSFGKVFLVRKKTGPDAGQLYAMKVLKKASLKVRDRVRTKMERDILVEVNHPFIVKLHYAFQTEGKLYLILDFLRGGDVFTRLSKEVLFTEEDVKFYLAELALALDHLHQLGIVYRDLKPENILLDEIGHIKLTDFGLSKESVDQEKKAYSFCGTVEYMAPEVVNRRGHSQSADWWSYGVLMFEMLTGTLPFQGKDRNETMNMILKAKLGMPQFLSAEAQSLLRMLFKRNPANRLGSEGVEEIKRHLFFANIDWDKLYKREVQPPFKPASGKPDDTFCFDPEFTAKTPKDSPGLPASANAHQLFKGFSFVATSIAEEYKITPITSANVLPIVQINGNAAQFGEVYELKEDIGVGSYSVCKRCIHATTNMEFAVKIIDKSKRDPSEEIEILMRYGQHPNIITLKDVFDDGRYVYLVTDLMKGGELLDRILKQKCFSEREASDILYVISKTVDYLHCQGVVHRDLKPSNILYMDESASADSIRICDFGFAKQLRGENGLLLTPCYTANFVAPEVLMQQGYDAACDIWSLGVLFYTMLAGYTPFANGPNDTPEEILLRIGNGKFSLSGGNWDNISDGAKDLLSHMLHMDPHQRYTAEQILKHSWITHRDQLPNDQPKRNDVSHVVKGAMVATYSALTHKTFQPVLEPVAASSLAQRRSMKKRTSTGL

ERBB2 (human) = ERBB2 (human) (UniProt P04626)
Sequence of ERBB2 (human) (P04626 whole entry, looked up): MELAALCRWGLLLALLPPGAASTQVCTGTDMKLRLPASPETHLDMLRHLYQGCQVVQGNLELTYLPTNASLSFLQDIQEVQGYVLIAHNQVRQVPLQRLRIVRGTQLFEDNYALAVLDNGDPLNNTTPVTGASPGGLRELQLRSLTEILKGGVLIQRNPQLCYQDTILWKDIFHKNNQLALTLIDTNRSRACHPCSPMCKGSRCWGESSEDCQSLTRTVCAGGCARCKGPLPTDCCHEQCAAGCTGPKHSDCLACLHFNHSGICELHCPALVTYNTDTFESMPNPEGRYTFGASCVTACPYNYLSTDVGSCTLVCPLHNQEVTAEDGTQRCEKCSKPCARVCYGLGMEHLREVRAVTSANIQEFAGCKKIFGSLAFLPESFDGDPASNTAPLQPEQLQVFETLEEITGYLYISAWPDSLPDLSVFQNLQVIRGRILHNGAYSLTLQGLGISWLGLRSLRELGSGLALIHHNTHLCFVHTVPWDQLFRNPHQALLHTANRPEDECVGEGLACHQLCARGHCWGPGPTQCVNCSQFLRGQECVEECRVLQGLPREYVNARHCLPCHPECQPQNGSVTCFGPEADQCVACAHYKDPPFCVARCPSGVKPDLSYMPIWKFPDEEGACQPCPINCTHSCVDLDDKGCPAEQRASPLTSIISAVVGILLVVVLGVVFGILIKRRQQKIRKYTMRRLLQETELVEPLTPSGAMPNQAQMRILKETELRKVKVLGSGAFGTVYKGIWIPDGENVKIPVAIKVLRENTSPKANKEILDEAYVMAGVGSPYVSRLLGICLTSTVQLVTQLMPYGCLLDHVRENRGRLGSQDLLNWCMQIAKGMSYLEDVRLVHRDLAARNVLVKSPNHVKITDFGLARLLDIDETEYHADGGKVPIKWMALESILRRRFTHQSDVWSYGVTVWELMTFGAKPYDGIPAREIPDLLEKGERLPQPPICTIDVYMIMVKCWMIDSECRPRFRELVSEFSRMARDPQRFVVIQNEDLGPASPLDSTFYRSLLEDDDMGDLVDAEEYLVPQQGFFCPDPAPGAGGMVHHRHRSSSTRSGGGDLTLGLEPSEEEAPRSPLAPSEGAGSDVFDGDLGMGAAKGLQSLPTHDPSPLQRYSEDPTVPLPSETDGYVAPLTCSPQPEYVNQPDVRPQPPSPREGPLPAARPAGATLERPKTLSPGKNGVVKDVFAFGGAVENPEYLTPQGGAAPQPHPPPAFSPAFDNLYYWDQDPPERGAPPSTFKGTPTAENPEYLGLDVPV

[1] = test system: RET (human), P07949 [M918T]
DDR1 (human) = DDR1 (human) (UniProt Q08345)
CIT (human) = CIT (human) (UniProt O14578)
STK10 (human) = STK10 (human) (UniProt O94804)
GRK4 (human) = GRK4 (human) (UniProt P32298)
STK32A (human) = STK32A (human) (UniProt Q8WU08)
Sequence of STK32A (human) (Q8WU08 whole entry, looked up): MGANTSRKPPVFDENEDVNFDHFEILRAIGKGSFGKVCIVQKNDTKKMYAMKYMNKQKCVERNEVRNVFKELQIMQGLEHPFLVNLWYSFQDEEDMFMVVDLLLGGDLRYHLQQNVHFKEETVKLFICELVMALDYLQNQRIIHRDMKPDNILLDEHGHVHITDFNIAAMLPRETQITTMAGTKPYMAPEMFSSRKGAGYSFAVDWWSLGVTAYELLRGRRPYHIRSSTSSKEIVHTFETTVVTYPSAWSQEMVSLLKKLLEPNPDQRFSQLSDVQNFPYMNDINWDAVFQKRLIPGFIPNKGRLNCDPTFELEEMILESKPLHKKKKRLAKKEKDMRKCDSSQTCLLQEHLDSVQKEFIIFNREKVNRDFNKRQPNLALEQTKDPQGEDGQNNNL

ULK1 (human) = ULK1 (human) (UniProt O75385)
EPHA6 (human) = EPHA6 (human) (UniProt Q9UF33)
[2] = target: JAK2 JH1 catalytic (human) (UniProt O60674)
MAPK3 (human) = MAPK3 (human) (UniProt P27361)
MYLK4 (human) = MYLK4 (human) (UniProt Q86YV6)
Sequence of MYLK4 (human) (Q86YV6 whole entry, looked up): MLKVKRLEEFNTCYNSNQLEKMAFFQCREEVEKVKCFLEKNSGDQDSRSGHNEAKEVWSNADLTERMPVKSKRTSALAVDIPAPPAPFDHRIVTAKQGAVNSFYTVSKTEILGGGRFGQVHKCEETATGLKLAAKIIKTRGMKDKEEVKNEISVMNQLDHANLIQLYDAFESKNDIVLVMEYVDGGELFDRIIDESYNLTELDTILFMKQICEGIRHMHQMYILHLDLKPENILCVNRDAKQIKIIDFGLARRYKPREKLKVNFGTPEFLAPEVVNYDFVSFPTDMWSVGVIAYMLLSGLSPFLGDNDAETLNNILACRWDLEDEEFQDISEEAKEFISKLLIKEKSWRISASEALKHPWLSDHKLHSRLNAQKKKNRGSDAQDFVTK

CHEK2 (human) = CHEK2 (human) (UniProt O96017)
Sequence of CHEK2 (human) (O96017 whole entry, looked up): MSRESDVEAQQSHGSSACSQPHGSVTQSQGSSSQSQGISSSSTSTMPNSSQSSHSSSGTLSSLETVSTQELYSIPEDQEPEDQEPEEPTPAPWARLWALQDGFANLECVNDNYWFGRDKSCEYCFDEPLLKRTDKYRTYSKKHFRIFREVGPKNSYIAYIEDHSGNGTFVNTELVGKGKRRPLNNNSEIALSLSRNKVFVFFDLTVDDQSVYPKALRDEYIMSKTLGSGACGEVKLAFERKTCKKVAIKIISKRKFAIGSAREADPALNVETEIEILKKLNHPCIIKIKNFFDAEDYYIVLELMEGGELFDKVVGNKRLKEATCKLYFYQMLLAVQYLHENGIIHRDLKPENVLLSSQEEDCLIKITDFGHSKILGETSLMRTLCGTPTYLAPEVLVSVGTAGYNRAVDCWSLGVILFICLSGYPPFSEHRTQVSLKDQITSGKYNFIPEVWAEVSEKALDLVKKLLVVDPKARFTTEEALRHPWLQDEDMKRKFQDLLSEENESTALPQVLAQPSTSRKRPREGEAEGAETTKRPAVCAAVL

MAP4K5 (human) = MAP4K5 (human) (UniProt Q9Y4K4)
DYRK2 (human) = DYRK2 (human) (UniProt Q92630)
HIPK3 (human) = HIPK3 (human) (UniProt Q9H422)
CDC2L2 (human) = CDC2L2 (human) (UniProt Q9UQ88)
Sequence of CDC2L2 (human) (Q9UQ88 whole entry, looked up): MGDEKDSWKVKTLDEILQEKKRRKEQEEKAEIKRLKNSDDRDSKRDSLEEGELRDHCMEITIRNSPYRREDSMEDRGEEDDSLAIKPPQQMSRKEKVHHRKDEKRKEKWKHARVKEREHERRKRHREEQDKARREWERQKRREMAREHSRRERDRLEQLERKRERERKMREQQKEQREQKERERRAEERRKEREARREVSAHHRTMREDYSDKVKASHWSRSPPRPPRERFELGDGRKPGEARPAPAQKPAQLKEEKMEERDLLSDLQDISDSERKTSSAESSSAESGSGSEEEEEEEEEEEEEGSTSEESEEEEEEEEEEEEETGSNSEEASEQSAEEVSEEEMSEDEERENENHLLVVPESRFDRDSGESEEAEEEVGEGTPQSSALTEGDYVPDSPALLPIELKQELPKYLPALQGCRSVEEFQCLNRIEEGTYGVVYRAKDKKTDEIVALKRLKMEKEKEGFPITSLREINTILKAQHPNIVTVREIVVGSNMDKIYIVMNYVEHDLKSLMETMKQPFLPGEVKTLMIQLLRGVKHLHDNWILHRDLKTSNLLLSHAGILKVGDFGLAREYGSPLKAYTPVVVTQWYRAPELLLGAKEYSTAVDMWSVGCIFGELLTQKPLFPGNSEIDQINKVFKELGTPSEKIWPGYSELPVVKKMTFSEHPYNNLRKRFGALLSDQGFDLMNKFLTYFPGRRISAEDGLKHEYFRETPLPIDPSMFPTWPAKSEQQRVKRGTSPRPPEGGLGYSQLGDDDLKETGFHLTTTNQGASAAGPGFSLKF

TRPM6 (human) = TRPM6 (human) (UniProt Q9BX84)
MAP3K15 (human) = MAP3K15 (human) (UniProt Q6ZN16)
NLK (human) = NLK (human) (UniProt Q9UBE8)
MYLK (human) = MYLK (human) (UniProt Q15746)
[3] = test system: KIT (human), P10721 [D816V]
PIP4K2B (human) = PIP4K2B (human) (UniProt P78356)
CDK16 (human) = CDK16 (human) (UniProt Q00536)
STK4 (human) = STK4 (human) (UniProt Q13043)
MYLK2 (human) = MYLK2 (human) (UniProt Q9H1R3)
MYLK3 (human) = MYLK3 (human) (UniProt Q32MK0)
[4] = test system: PIK3CA (human), P42336 [H1047L]
KDR (human) = KDR (human) (UniProt P35968)
[5] = test system: PIK3CA (human), P42336 [C420R]
[6] = test system: ABL1 (human), P00519 [M351T]

Sequence of ACVR2A (human) (P27037 whole entry, looked up): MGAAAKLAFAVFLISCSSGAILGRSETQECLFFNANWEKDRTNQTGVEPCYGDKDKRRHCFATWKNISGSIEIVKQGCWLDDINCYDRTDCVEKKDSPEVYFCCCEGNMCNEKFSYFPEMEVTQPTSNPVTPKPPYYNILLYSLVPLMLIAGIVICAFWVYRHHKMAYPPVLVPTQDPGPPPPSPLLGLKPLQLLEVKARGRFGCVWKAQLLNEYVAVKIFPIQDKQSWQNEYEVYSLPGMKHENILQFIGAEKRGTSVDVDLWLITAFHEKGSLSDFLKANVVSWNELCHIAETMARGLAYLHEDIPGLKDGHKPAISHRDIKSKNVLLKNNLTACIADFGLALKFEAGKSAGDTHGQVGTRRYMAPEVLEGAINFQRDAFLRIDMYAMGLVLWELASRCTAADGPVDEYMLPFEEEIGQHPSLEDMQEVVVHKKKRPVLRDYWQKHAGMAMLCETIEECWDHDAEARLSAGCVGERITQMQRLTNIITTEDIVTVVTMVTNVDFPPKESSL

Structure (SMILES): CC(C)n1nc(-c2cc3cc(O)ccc3[nH]2)c2c(N)ncnc21
- kinase still bound, per cent of control (ACVR2A (human)): 0.5%
- kinase still bound, per cent of control (SBK1 (human)): 92%
- kinase still bound, per cent of control (NEK6 (human)): 100%
- kinase still bound, per cent of control (YES1 (human)): 3.2%
- kinase still bound, per cent of control (RET (human)): 0%
- kinase still bound, per cent of control (LYN (human)): 12%
- kinase still bound, per cent of control (PIM2 (human)): 0.6%
- kinase still bound, per cent of control (TTK (human)): 9.2%
- kinase still bound, per cent of control (CRK2 (P.falciparum)): 93%
- kinase still bound, per cent of control (RPS6KA6 KD1 (human)): 4.6%
- kinase still bound, per cent of control (ERBB2 (human)): 29%
- kinase still bound, per cent of control [1]: 0%
- kinase still bound, per cent of control (DDR1 (human)): 6.4%
- kinase still bound, per cent of control (CIT (human)): 66%
- kinase still bound, per cent of control (STK10 (human)): 0.5%
- kinase still bound, per cent of control (GRK4 (human)): 83%
- kinase still bound, per cent of control (STK32A (human)): 1.8%
- kinase still bound, per cent of control (ULK1 (human)): 86%
- kinase still bound, per cent of control (EPHA6 (human)): 5.2%
- kinase still bound, per cent of control [2]: 0.95%
- kinase still bound, per cent of control (MAPK3 (human)): 100%
- kinase still bound, per cent of control (MYLK4 (human)): 43%
- kinase still bound, per cent of control (CHEK2 (human)): 19%
- kinase still bound, per cent of control (MAP4K5 (human)): 72%
- kinase still bound, per cent of control (DYRK2 (human)): 1.4%
- kinase still bound, per cent of control (HIPK3 (human)): 0.9%
- per cent of control (CDC2L2 (human)): 100%
- kinase still bound, per cent of control (TRPM6 (human)): 70%
- kinase still bound, per cent of control (MAP3K15 (human)): 76%
- kinase still bound, per cent of control (NLK (human)): 10%
- per cent of control (MYLK (human)): 0.9%
- kinase still bound, per cent of control [3]: 2.5%
- kinase still bound, per cent of control (PIP4K2B (human)): 55%
- per cent of control (CDK16 (human)): 98%
- kinase still bound, per cent of control (STK4 (human)): 84%
- kinase still bound, per cent of control (MYLK2 (human)): 43%

Structure (SMILES): COC(=O)Nc1ccc(-c2nc(N3CCOCC3)c3cnn(C4CCN(C(=O)OC)CC4)c3n2)cc1
- kinase still bound, per cent of control (ACVR2A (human)): 100%
- kinase still bound, per cent of control (MYLK3 (human)): 100%
- kinase still bound, per cent of control (SBK1 (human)): 100%
- kinase still bound, per cent of control (NEK6 (human)): 100%
- kinase still bound, per cent of control (YES1 (human)): 97%
- kinase still bound, per cent of control (RET (human)): 93%
- kinase still bound, per cent of control (LYN (human)): 92%
- kinase still bound, per cent of control (PIM2 (human)): 100%
- kinase still bound, per cent of control (TTK (human)): 100%
- kinase still bound, per cent of control (CRK2 (P.falciparum)): 95%
- kinase still bound, per cent of control (RPS6KA6 KD1 (human)): 86%
- kinase still bound, per cent of control (ERBB2 (human)): 100%
- kinase still bound, per cent of control [4]: 12%
- kinase still bound, per cent of control [1]: 87%
- kinase still bound, per cent of control (DDR1 (human)): 100%
- kinase still bound, per cent of control (CIT (human)): 98%
- kinase still bound, per cent of control (STK10 (human)): 100%
- kinase still bound, per cent of control (GRK4 (human)): 100%
- kinase still bound, per cent of control (STK32A (human)): 100%
- kinase still bound, per cent of control (ULK1 (human)): 84%
- kinase still bound, per cent of control (EPHA6 (human)): 90%
- kinase still bound, per cent of control [2]: 73%
- kinase still bound, per cent of control (MAPK3 (human)): 99%
- kinase still bound, per cent of control (MYLK4 (human)): 99%
- kinase still bound, per cent of control (CHEK2 (human)): 100%
- kinase still bound, per cent of control (MAP4K5 (human)): 100%
- kinase still bound, per cent of control (DYRK2 (human)): 82%
- kinase still bound, per cent of control (HIPK3 (human)): 72%
- per cent of control (CDC2L2 (human)): 100%
- kinase still bound, per cent of control (TRPM6 (human)): 100%
- kinase still bound, per cent of control (MAP3K15 (human)): 96%
- kinase still bound, per cent of control (NLK (human)): 99%
- per cent of control (MYLK (human)): 81%
- kinase still bound, per cent of control [3]: 100%
- kinase still bound, per cent of control (PIP4K2B (human)): 100%
- kinase still bound, per cent of control (KDR (human)): 100%
- kinase still bound, per cent of control [5]: 3%
- per cent of control (CDK16 (human)): 100%
- kinase still bound, per cent of control (STK4 (human)): 100%
- kinase still bound, per cent of control [6]: 100%
- kinase still bound, per cent of control (MYLK2 (human)): 100%

Structure (SMILES): CCC(=O)N1CCN(c2ccc(-n3c(=O)ccc4cnc5ccc(-c6cnc7ccccc7c6)cc5c43)cc2C(F)(F)F)CC1
- kinase still bound, per cent of control (ACVR2A (human)): 47%
- kinase still bound, per cent of control (MYLK3 (human)): 94%
- kinase still bound, per cent of control (SBK1 (human)): 88%
- kinase still bound, per cent of control (NEK6 (human)): 99%
- kinase still bound, per cent of control (YES1 (human)): 74%
- kinase still bound, per cent of control (RET (human)): 44%
- kinase still bound, per cent of control (LYN (human)): 79%
- kinase still bound, per cent of control (PIM2 (human)): 62%
- kinase still bound, per cent of control (TTK (human)): 9.6%
- kinase still bound, per cent of control (CRK2 (P.falciparum)): 97%
- kinase still bound, per cent of control (RPS6KA6 KD1 (human)): 66%
- kinase still bound, per cent of control (ERBB2 (human)): 91%
- kinase still bound, per cent of control [4]: 2.6%
- kinase still bound, per cent of control [1]: 51%
- kinase still bound, per cent of control (DDR1 (human)): 100%
- kinase still bound, per cent of control (CIT (human)): 59%
- kinase still bound, per cent of control (STK10 (human)): 79%
- kinase still bound, per cent of control (GRK4 (human)): 90%
- kinase still bound, per cent of control (STK32A (human)): 100%
- kinase still bound, per cent of control (ULK1 (human)): 100%
- kinase still bound, per cent of control (EPHA6 (human)): 75%
- kinase still bound, per cent of control [2]: 65%
- kinase still bound, per cent of control (MAPK3 (human)): 91%
- kinase still bound, per cent of control (MYLK4 (human)): 83%
- kinase still bound, per cent of control (CHEK2 (human)): 100%
- kinase still bound, per cent of control (MAP4K5 (human)): 8.1%
- kinase still bound, per cent of control (DYRK2 (human)): 86%
- kinase still bound, per cent of control (HIPK3 (human)): 86%
- per cent of control (CDC2L2 (human)): 100%
- kinase still bound, per cent of control (TRPM6 (human)): 100%
- kinase still bound, per cent of control (MAP3K15 (human)): 100%
- kinase still bound, per cent of control (NLK (human)): 25%
- per cent of control (MYLK (human)): 87%
- kinase still bound, per cent of control (PIP4K2B (human)): 100%
- kinase still bound, per cent of control (KDR (human)): 65%
- kinase still bound, per cent of control [5]: 0.7%
- per cent of control (CDK16 (human)): 91%
- kinase still bound, per cent of control (STK4 (human)): 7.6%
- kinase still bound, per cent of control [6]: 100%
- kinase still bound, per cent of control (MYLK2 (human)): 40%
